Common to all, as to type: biochemical
In experiment [1] the target is VEGFR2 (Homo sapiens (Human), UniProt P35968). The experiment is described as follows: VEGFR2 activity inhibition testing (HTRF in vitro kinase assay). Conditions: humanized recombinant VEGFR2 protein, 3.5 μM ATP. On the procedure:
The IC50 value of the compound is calculated from 8 concentration points with the XLfit (ID Business Solutions Ltd., UK) software through the following equation: Y=Bottom+(Top−Bottom)/(1+10^((log IC50−X)*slope factor)) • where Y is the inhibition percentage, X is the logarithm of the concentration of the test compound, Bottom is the maximum inhibition percentage, Top is the minimum inhibition percentage, and slope factor is the slope coefficient of the curve. VEGFR2 Activity Inhibition Testing
An in vitro kinase assay was used to evaluate the effect of the compounds of the present invention on VEGFR2 activity.
(§1) The experimental method is summarized as follows:
The in vitro activity of VEGFR2 was determined by detecting the phosphorylation level of the substrate in the kinase reaction using a homogeneous time-resolved fluorescence (HTRF) kinase detection kit (Cisbio, catalog number 62TKOPEC). The reaction buffer contains an enzyme reaction buffer (1×) provided in the kit, 5 mM MgCl2, 1 mM MnCl2, 1 mM DTT, 0.01% BSA and 0.005% Tween 20. The humanized recombinant VEGFR2 protein (Cat. No. 10012-H20B1) was purchased from Sino Biological Inc., and diluted to a 0.3 ng/μL kinase solution with the reaction buffer. The substrate reaction solution includes 0.3 μM biotin-labeled tyrosine kinase substrate and 3.5 μM ATP which were diluted with the reaction buffer. The assay buffer includes 0.1 ng/μL Eu^3+ labeled cage antibody and 18.75 nM streptavidin labeled XL665 (Cisbio, catalog number 610SAXLB) which were diluted with the reaction buffer.
The compound was dissolved and diluted to 10 μM in 100% DMSO, then a 4-fold serial dilution was performed with DMSO to the lowest concentration of 0.61 nM, and each concentration point was diluted 40-fold with the reaction buffer.
4 μL of Compound solution and 2 μL of VEGFR2 kinase solution were added to a 384-well detection plate (Corning, catalog number 4512), mixed uniformly and incubated at room temperature for 15 minutes. Then 4 μL of the substrate reaction solution was added, and the reaction mixture was incubated at room temperature for 30 minutes. Then 10 μL of the assay buffer equal to the volume of the reaction was added, mixed uniformly and allowed to stand at room temperature for 30 minutes, and then the reaction progress was detected with an Envision plate reader (Perkin Elmer) at wavelengths of 620 nm and 665 nm. The ratio of 665/620 is positively correlated with the phosphorylation degree of the substrate, thereby detecting the activity of VEGFR2 kinase. In this experiment, the group without VEGFR2 kinase protein was used as a negative control (100% inhibition), and the group with VEGFR2 kinase protein but no compound was used as a positive control (0% inhibition). The inhibition percentage of the compound on VEGFR2 activity can be calculated using the following equation: Percentage of inhibition=100−100*(signal value of test compound at a specific concentration−signal value of negative control)/(signal value of positive control—signal value of negative control)
(§2) The IC50 value of the compound is calculated from 8 concentration points with the XLfit (ID Business Solutions Ltd., UK) software through the following equation: Y=Bottom+(Top−Bottom)/(1+10^((log IC50−X)*slope factor)) • where Y is the inhibition percentage, X is the logarithm of the concentration of the test compound, Bottom is the maximum inhibition percentage, Top is the minimum inhibition percentage, and slope factor is the slope coefficient of the curve. VEGFR3 Activity Inhibition Testing
On the technique in general: TR-FRET usually uses a lanthanide donor and a delayed reading to cut background.

The target of experiment [2] is VEGFR1 (Homo sapiens (Human), UniProt P17948). The experiment is described as follows: VEGFR1 activity inhibition testing (HTRF in vitro kinase assay). Conditions: humanized recombinant VEGFR1 protein, 0.8 μM ATP. On the procedure:
VEGFR1 Activity Inhibition Testing
An in vitro kinase assay was used to evaluate the effect of the compounds of the present invention on VEGFR1 activity.
as §1
The in vitro activity of VEGFR1 was determined by detecting the phosphorylation level of the substrate in the kinase reaction using a homogeneous time-resolved fluorescence (HTRF) kinase detection kit (Cisbio, catalog number 62TKOPEC). The reaction buffer contains an enzyme reaction buffer (1×) provided in the kit, 5 mM MgCl2, 1 mM MnCl2, 1 mM DTT. […]
4 μL of Compound solution and 2 μL of VEGFR1 kinase solution were added to a 384-well detection plate (Corning, catalog number 4512), mixed uniformly and incubated at room temperature for 15 minutes. […] Then 10 μL of the assay buffer equal to the volume of the reaction was added, mixed uniformly and allowed to stand at room temperature for 30 minutes, and then the reaction progress was detected with an Envision plate reader (Perkin Elmer) at wavelengths of 620 nm and 665 nm. […] The inhibition percentage of the compound on VEGFR1 activity can be calculated using the following equation: Percentage of inhibition=100−100*(signal value of test compound at a specific concentration−signal value of negative control)/(signal value of positive control−signal value of negative control) […]

The target of experiment [3] is VEGFR3 (Homo sapiens (Human), UniProt P35916). As to the kind of experiment: VEGFR3 activity inhibition testing (HTRF in vitro kinase assay). Conditions: humanized recombinant VEGFR3 protein, 0.4 μM ATP. As to the method: as §2
Chain of VEGFR3 (P35916 25-1363): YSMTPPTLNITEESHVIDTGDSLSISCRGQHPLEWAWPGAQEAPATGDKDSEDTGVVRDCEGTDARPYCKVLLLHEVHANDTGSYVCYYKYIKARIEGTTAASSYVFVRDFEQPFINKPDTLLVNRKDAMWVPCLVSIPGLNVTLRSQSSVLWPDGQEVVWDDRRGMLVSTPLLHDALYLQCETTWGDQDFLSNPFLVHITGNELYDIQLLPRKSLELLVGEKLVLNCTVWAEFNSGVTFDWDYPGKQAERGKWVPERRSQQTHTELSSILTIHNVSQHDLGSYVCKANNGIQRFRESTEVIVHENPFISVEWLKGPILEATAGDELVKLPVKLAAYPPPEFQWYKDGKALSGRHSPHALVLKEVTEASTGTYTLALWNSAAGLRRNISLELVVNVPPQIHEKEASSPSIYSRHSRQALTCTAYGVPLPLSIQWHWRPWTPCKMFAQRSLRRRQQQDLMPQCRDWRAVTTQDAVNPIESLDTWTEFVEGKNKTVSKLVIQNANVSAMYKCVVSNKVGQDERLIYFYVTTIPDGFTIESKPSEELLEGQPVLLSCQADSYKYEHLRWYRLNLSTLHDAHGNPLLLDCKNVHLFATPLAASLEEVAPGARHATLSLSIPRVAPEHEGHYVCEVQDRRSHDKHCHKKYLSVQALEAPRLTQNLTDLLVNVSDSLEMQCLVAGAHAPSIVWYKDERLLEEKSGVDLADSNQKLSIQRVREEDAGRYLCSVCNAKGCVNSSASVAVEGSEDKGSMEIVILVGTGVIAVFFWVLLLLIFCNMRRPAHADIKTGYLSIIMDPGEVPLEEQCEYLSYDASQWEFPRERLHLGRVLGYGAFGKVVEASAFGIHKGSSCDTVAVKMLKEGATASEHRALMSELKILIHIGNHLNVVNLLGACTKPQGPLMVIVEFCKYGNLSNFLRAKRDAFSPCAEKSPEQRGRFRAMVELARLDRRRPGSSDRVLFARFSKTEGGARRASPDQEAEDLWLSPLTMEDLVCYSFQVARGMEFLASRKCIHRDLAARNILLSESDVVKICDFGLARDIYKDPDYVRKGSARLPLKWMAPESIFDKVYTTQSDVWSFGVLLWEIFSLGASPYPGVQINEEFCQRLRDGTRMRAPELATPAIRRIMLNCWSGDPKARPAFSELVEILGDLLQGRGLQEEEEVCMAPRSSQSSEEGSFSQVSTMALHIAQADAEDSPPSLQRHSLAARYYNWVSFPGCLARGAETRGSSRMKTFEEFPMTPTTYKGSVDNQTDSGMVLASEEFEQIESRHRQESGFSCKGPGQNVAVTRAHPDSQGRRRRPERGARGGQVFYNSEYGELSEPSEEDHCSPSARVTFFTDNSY
An in vitro kinase assay was used to evaluate the effect of the compounds of the present invention on VEGFR3 activity.
as §1
The in vitro activity of VEGFR3 was determined by detecting the phosphorylation level of the substrate in the kinase reaction using a HTRF kinase detection kit (Cisbio, catalog number 62TK0PEC). […]
4 μL of Compound solution and 2 μL of VEGFR3 kinase solution were added to a 384-well detection plate (Corning, catalog number 4512), mixed uniformly and incubated at room temperature for 15 minutes. […] Then 10 μL of the assay buffer equal to the volume of the reaction was added, mixed uniformly and allowed to stand at room temperature for 30 minutes, and then the reaction progress was detected with an Envision plate reader (Perkin Elmer) at wavelengths of 620 nm and 665 nm. […]

Chain of VEGFR2 (P35968 20-1356): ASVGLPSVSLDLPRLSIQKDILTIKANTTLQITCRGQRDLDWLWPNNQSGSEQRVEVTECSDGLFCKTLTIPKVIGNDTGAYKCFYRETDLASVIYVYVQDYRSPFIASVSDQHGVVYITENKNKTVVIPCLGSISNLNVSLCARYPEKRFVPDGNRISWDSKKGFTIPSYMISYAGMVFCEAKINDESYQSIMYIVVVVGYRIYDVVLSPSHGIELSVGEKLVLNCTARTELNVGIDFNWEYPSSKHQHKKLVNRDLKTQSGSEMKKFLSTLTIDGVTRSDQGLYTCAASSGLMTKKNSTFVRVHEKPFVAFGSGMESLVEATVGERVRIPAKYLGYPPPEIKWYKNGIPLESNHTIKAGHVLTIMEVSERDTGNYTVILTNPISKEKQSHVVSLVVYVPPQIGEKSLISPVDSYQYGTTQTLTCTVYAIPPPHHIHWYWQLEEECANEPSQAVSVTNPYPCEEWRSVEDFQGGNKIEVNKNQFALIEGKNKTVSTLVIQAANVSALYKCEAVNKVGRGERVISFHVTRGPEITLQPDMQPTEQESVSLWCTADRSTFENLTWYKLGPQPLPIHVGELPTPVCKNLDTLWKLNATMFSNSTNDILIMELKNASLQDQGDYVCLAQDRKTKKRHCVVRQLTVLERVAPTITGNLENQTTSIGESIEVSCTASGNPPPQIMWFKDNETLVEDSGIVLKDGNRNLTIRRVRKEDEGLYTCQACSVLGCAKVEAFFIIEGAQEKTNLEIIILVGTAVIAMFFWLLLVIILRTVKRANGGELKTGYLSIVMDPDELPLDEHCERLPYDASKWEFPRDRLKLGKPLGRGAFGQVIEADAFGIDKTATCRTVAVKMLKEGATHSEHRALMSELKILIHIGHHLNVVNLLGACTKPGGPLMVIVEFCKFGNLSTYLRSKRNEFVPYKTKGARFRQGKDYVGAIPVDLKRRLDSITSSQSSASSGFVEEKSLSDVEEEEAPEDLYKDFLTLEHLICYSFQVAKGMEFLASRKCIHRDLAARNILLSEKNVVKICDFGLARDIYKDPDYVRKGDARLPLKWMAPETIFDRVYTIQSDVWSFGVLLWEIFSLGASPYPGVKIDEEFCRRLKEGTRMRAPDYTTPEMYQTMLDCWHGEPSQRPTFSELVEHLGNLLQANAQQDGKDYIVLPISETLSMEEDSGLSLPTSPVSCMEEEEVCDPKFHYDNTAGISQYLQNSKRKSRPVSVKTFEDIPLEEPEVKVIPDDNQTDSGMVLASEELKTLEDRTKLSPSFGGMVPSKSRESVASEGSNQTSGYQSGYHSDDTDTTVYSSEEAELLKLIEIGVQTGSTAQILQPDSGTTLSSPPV
Chain of VEGFR1 (P17948 27-1338): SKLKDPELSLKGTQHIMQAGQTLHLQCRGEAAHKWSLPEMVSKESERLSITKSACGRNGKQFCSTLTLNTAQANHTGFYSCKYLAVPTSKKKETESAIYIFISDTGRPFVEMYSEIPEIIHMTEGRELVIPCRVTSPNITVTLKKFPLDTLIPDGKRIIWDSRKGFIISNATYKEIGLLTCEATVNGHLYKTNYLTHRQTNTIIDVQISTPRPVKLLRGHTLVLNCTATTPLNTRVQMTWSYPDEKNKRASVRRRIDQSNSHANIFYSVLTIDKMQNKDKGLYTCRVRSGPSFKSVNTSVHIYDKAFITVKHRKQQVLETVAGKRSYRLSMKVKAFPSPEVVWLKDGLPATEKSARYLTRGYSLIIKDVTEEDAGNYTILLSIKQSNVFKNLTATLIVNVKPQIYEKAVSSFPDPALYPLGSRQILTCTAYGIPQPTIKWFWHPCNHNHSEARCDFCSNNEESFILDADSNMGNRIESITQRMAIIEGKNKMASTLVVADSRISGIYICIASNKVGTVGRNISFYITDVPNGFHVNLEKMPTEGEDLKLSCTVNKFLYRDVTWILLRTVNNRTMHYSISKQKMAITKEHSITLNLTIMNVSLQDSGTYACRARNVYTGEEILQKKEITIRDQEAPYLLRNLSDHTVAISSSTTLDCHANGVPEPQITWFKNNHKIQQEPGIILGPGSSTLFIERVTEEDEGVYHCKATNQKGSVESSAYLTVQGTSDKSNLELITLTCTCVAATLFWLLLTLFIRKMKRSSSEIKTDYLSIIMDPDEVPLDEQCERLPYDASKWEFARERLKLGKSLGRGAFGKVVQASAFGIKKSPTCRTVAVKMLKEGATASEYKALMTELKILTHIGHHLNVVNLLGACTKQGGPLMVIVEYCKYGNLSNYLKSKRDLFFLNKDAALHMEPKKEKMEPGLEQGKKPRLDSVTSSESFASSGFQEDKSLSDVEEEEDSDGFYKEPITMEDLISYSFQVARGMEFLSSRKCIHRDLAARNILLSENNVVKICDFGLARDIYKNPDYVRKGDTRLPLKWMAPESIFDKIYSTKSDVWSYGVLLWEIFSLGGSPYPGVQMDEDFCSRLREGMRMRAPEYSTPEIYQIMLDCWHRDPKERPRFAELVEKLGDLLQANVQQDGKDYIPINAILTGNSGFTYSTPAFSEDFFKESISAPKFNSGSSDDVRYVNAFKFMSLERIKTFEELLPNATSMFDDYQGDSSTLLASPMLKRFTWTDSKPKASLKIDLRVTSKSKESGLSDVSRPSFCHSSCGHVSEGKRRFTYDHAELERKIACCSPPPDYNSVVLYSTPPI

With `COc1cc2nccc(Oc3ccc4c(c3)CCN4C(=O)Nc3ccc(F)cc3)c2cc1C(N)=O` [Compound 4, 4-((1-((4-fluorophenyl)carbamoyl)indolin-5-yl)oxy)-7-methoxyquinoline-6-carboxamide], in experiment [1], the IC50 (in general, the concentration that inhibits the measured activity by half) was under 0.01 µM.

Consider `COc1cc2nccc(Oc3ccc4c(c3)CCN4C(=O)NC3CC3)c2cc1C(N)=O` [Compound 1, 4-((1-(cyclopropylcarbamoyl)indolin-5-yl)oxy)-7-methoxyquinoline-6-carboxamide], for which the results for the IC50 in experiment [2], in experiment [1] and in experiment [3] were 0.01 to 0.1 µM, under 0.01 µM and under 0.01 µM, respectively.

As for `CNC(=O)N1CCc2cc(Oc3ccnc4cc(OC)c(C(N)=O)cc34)ccc21` [Compound 3, 7-methoxy-4-((1-(methylcarbamoyl)indolin-5-yl)oxy)quinoline-6-carboxamide], the 50% inhibitory concentration (IC50) in experiment [1] is 0.01 to 0.1 µM.

In the case of `COc1cc2nccc(Oc3ccc4c(c3)CCN4C(=O)Nc3cc(C)on3)c2cc1C(N)=O` [Compound 6, 7-methoxy-4-((1-((5-methylisoxazol-3-yl)carbamoyl)indolin-5-yl)oxy)quinoline-6-carboxamide], in experiment [1], the IC50 is under 0.01 µM.

As to `COc1cc2nccc(Oc3ccc4c(c3)CCN4C(=O)NC3CC3)c2cc1OC` [Compound 5, N-cyclopropyl-5-((6,7-dimethoxyquinolin-4-yl)oxy)indoline-1-carboxamide], the half-inhibitory concentration (IC50) in experiment [1] lay in the range of 0.01 to 0.1 µM.

Regarding `NC(=O)c1cc2c(Oc3ccc4c(c3)CCN4C(=O)NC3CC3)ccnc2cc1O` [Compound 2, 4-((1-(cyclopropylcarbamoyl)indolin-5-yl)oxy)-7-hydroxyquinoline-6-carboxamide], in experiment [1], the IC50 lay within 0.01 to 0.1 µM.

For the origin of these results see patent publication US12391666B2, “Indoline-1-formamide compound, preparation method therefor, and medical use thereof” (Beijing Innocare Pharma Tech Co., Ltd., priority 2018, dated 2025).
